Assay results as given in US20250387355A1 (SpringWorks Therapeutics Inc., priority 2024, published 2025).

Tested on: NF1-associated plexiform neurofibromas (PNs)
Test: Phase 2b trial of mirdametinib: efficacy by volumetric MRI per REiNS criteria (BICR)
Type: in vivo, human
Conditions: for DoR ≥12 months, %: responders, first DoR line (r12)
Procedure: Study treatment was administered orally at a twice daily (BID) dose specified in the table below. Dosing was on a 28-day Cycle (4-week course) with a 3 week on/1 week off schedule. The treatment period will last for up to 24 Cycles followed by a 30-day Safety Follow-Up period.
A partial response was defined as PN decrease ≥20% compared to baseline using centrally read MRI volumetric analysis.
The major efficacy outcome measure was confirmed objective response rate (ORR), defined as the percentage of patients with complete response (disappearance of the target PN) or confirmed partial response (≥20% reduction in PN volume confirmed at a subsequent tumor assessment within 2-6 months during the 24-cycle treatment phase). Responses were assessed by blinded independent central review (BICR) using volumetric magnetic resonance imaging (MRI) analysis per Response Evaluation in Neurofibromatosis and Schwannomatosis (REiNS) criteria. A secondary efficacy objective was to determine the duration of response for patients who achieved a confirmed objective response.

With `O=C(NOC[C@H](O)CO)c1ccc(F)c(F)c1Nc1ccc(I)cc1F` (single isomer, unassigned) [mirdametinib] the “Confirmed Complete Response, n (%)” value (Adult (N = 58)) was 0, the “Confirmed Objective Response Rate per REINS criteria by BICR, (%)” value (Adult (N = 58)) was “(41) %” and the “Confirmed Partial Response, (%)” value (Adult (N = 58)) was “(41) %”. For the same compound, the “DoR ≥12 months, %” value (Adult) was “(88%)”, the “Confirmed Complete Response, n (%)” value (Pediatric (N = 56)) was 0 and the “Confirmed Objective Response Rate per REINS criteria by BICR, (%)” value (Pediatric (N = 56)) was “(52) %”. The “Confirmed Partial Response, (%)” value (Pediatric (N = 56)) was “(52) %” and the “DoR ≥12 months, %” value (Pediatric) was “(90%)”.
